Article PMC6282443 (Journal of Enzyme Inhibition and Medicinal Chemistry, 2018)
Like-named read-outs stand apart in the source and are kept apart here.

What was measured:
Assay type in all cases: cell-based, human
[1] = system: A549 cells; test: cells; details: read-out: Anti-proliferative activity IC50, A549
[2] = system: MCF-7 cells; test: MTT anti-proliferative assay, MCF-7; details: read-out: Anti-proliferative activity IC50, MCF-7
[3] = system: HepG2 cells; test: MTT anti-proliferative assay, HepG2; details: read-out: Anti-proliferative activity IC50, HepG2
[4] = system: H1975 cells; details: H1975, MTT; for IC50: read-out: Anti-proliferative activity IC50, H1975, 72 h

IC50 ([1]; Homo sapiens, A549, 72 h) | IC50 ([2]; Homo sapiens, MCF7, 72 h) | IC50 ([3]; Homo sapiens, HepG2, 72 h) | IC50 ([1]; A549, MTT, 72 h) | IC50 ([2]; MCF-7, MTT, 72 h) | IC50 ([3]; HepG2, MTT, 72 h) | IC50 [4] | SMILES | inhibitory activity against H1975 cells (in words) [4]
7.99 ± 0.82 µM | 3.8 ± 0.22 µM | 9.89 ± 0.96 µM |  |  |  |  | COc1cc2ncnc(Nc3ccc(F)c(Cl)c3)c2cc1NC(=O)N/N=C/c1ccc(CN(C)C)cc1 [Compound 19, (E)-N-(4-((3-chloro-4-fluorophenyl)amino)-7-methoxyquinazolin-6-yl)-2-(4-((dimethylamino)methyl)benzylidene)hydrazine-1-carboxamide] | moderate inhibitory activity
8.71 ± 0.54 µM | 4.14 ± 0.57 µM | 9.49 ± 0.47 µM |  |  |  |  | CCN(CC)Cc1ccc(/C=N/NC(=O)Nc2cc3c(Nc4ccc(F)c(Cl)c4)ncnc3cc2OC)cc1 [Compound 20, (E)-N-(4-((3-chloro-4-fluorophenyl)amino)-7-methoxyquinazolin-6-yl)-2-(4-((diethylamino)methyl)benzylidene)hydrazine-1-carboxamide] | poorer cellular activity
17.8 ± 1.22 µM | 8.9 ± 0.48 µM | 21.3 ± 1.47 µM |  |  |  |  | COc1cc2ncnc(Nc3ccc(F)c(Cl)c3)c2cc1NC(=O)N/N=C/c1ccc(CN2CCCC2)cc1 [Compound 21, (E)-N-(4-((3-chloro-4-fluorophenyl)amino)-7-methoxyquinazolin-6-yl)-2-(4-(pyrrolidin-1-ylmethyl)benzylidene)hydrazine-1-carboxamide] | moderate inhibitory activity
4.32 ± 0.61 µM | 3.12 ± 0.38 µM | 2.86 ± 0.13 µM |  |  |  |  | COc1cc2ncnc(Nc3ccc(F)c(Cl)c3)c2cc1NC(=O)N/N=C/c1ccc(CN2CCN(C)CC2)cc1 [Compound 24, (E)-N-(4-((3-chloro-4-fluorophenyl)amino)-7-methoxyquinazolin-6-yl)-2-(4-((4-methylpiperazin-1-yl)methyl)benzylidene)hydrazine-1-carboxamide] | moderate inhibitory activity
4.13 ± 0.54 µM | 4.41 ± 0.28 µM | 3.76 ± 0.21 µM |  |  |  |  | CN(C)Cc1ccc(/C=N/NC(=O)Nc2cc3c(Nc4ccc(F)c(Cl)c4)ncnc3cc2O[C@H]2CCOC2)cc1 [Compound 25, (S,E)-N-(4-((3-chloro-4-fluorophenyl)amino)-7-((tetrahydrofuran-3-yl)oxy)quinazolin-6-yl)-2-(4-((dimethylamino)methyl)benzylidene)hydrazine-1-carboxamide] | poorer cellular activity
 |  |  | 40.1 ± 4.03 µM | 37.2 ± 2.89 µM | 36.3 ± 2.57 µM | 45.3 ± 3.34 µM | COc1cc2ncnc(Nc3ccc(F)c(Cl)c3)c2cc1NC(=O)N/N=C/c1ccc(OCCN(C)C)cc1 [Compound 31, (E)-N-(4-((3-chloro-4-fluoropheny)amino)-7-methoxyquinazolin-6-yl)-2-(4-(2-(dimethylamino)ethoxy)benzylidene)hydrazine-1-carboxamide] | 
 |  |  | 8.62 ± 1.13 µM | 12.5 ± 1.24 µM | 13.2 ± 1.03 µM | 32.6 ± 3.45 µM | CCN(CC)CCOc1ccc(/C=N/NC(=O)Nc2cc3c(Nc4ccc(F)c(Cl)c4)ncnc3cc2OC)cc1 [Compound 32, (E)-N-(4-((3-chloro-4-fluoropheny)amino)-7-methoxyquinazolin-6-yl)-2-(4-(2-(diethylamino)ethoxy)benzylidene)hydrazine-1-carboxamide] | poorer cellular activity
 |  |  | 10.8 ± 1.43 µM | 9.21 ± 1.16 µM | 12.7 ± 1.25 µM | 61.6 ± 5.67 µM | COc1cc2ncnc(Nc3ccc(F)c(Cl)c3)c2cc1NC(=O)N/N=C/c1ccc(OCCN2CCCCC2)cc1 [Compound 34, (E)-N-(4-((3-chloro-4-fluoropheny)amino)-7-methoxyquinazolin-6-yl)-2-(4-(2-(piperidin-1-yl)ethoxy)benzylidene)hydrazine-1-carboxamide] | poorer cellular activity
 |  |  | 19.5 ± 1.35 µM | 21.8 ± 1.34 µM | 16.5 ± 1.42 µM | 25.2 ± 1.35 µM | COc1cc2ncnc(Nc3ccc(Cl)c(F)c3)c2cc1NC(=O)N/N=C/c1ccc(OCCN2CCOCC2)cc1 [Compound 35, (E)-N-(4-((4-chloro-3-fluorophenyl)amino)-7-methoxyquinazolin-6-yl)-2-(4-(2-morpholinoethoxy)benzylidene) hydrazine-1-carboxamide] | 
 |  |  | 11.4 ± 1.07 µM | 6.2 ± 0.81 µM | 10.2 ± 1.09 µM | 24.7 ± 1.86 µM | COc1cc2ncnc(Nc3ccc(F)c(Cl)c3)c2cc1NC(=O)N/N=C/c1ccc(OCCN2CCN(C)CC2)cc1 [Compound 36, (E)-N-(4-((3-chloro-4-fluoropheny)amino)-7-methoxyquinazolin-6-yl)-2-(4-(2-(4-methylpiperazin-1-yl)ethoxy)benzylidene)hydrazine-1-carboxamide] | poorer cellular activity
 |  |  | 14.7 ± 1.35 µM | 11.7 ± 1.34 µM | 8.2 ± 0.81 µM | 10.2 ± 1.12 µM | CN(C)CCOc1ccc(/C=N/NC(=O)Nc2cc3c(Nc4ccc(F)c(Cl)c4)ncnc3cc2O[C@H]2CCOC2)cc1 [Compound 37, (S,E)-N-(4-((3-chloro-4-fluoropheny)amino)-7-((tetrahydrofuran-3-yl)oxy)quinazolin-6-yl)-2-(4-(2-(dimethylamino)ethoxy)benzylidene)hydrazine-1-carboxamide] | moderate inhibitory activity
 |  |  | 63.9 ± 5.35 µM | 64.8 ± 5.35 µM | 67.3 ± 6.24 µM | > 100 µM | O=C(N/N=C/c1ccc(OCCN2CCCC2)cc1)Nc1cc2c(Nc3ccc(F)c(Cl)c3)ncnc2cc1O[C@H]1CCOC1 [Compound 39, (S,E)-N-(4-((3-chloro-4-fluoropheny)amino)-7-((tetrahydrofuran-3-yl)oxy)quinazolin-6-yl)-2-(4-(2-(pyrrolidin-1-yl)ethoxy)benzylidene)hydrazine-1-carboxamide] | 
 |  |  | 24.2 ± 1.24 µM | 24.2 ± 1.23 µM | 17.4 ± 1.24 µM | 35.3 ± 2.35 µM | O=C(N/N=C/c1ccc(OCCN2CCCCC2)cc1)Nc1cc2c(Nc3ccc(F)c(Cl)c3)ncnc2cc1O[C@H]1CCOC1 [Compound 40, (S,E)-N-(4-((3-chloro-4-fluoropheny)amino)-7-((tetrahydrofuran-3-yl)oxy)quinazolin-6-yl)-2-(4-(2-(piperidin-1-yl)ethoxy)benzylidene)hydrazine-1-carboxamide] | 
 |  |  | 37.8 ± 2.54 µM | 28.8 ± 1.29 µM | 40.2 ± 3.04 µM | 25.5 ± 1.44 µM | O=C(N/N=C/c1ccc(OCCN2CCOCC2)cc1)Nc1cc2c(Nc3ccc(F)c(Cl)c3)ncnc2cc1O[C@H]1CCOC1 [Compound 41, (S,E)-N-(4-((3-chloro-4-fluoropheny)amino)-7-((tetrahydrofuran-3-yl)oxy)quinazolin-6-yl)-2-(4-(2-morpholinoethoxy)benzylidene)hydrazine-1-carboxamide] | 
 |  |  | 4.01 ± 0.56 µM | 6.85 ± 0.65 µM | 9.58 ± 0.94 µM | 3.1 ± 0.49 µM | COc1cc2ncnc(Nc3ccc(F)c(Cl)c3)c2cc1NC(=O)N/N=C/c1ccc(OCCCN2CCCCC2)cc1 [Compound 46, (E)-N-(4-((3-chloro-4-fluoropheny)amino)-7-methoxyquinazolin-6-yl)-2-(4-(3-(piperidin-1-yl)propoxy)benzylidene)hydrazine-1-carboxamide] | 
